Assay results taken from patent publication US20230114728A1 (Venatorx Pharmaceuticals, Inc., priority 2019, published 2023).
Converted amounts (≈) assume the structure as drawn.

How the values were obtained:
Experiment in all cases: Broth microdilution MIC in iron-depleted CAMHB (IDM)
Type in all cases: cell-based
P. aeruginosa CDC-0110 = details: Pseudomonas aeruginosa, CDC0110, read-out: Minimum Inhibitory Concentration, P. aeruginosa CDC-0110
Procedure, shortened: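 CLSI broth microdilution in iron-depleted cation-adjusted Mueller Hinton broth (Chelex-treated, Ca, Mg, Zn restored, pH 7.3), inoculum 2-8×10^5 CFU/mL, 2-fold compound dilutions. Pseudomonas plates incubated 16-20 h at 37 °C; MIC read visually as lowest concentration without growth.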

[1] = test system: P. aeruginosa CDC-0090 producing KPC-5, OXA-50, and PAO; details: Pseudomonas aeruginosa, read-out: Minimum Inhibitory Concentration, P. aeruginosa CDC-0090
Procedure, shortened: (§1)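 MIC read by eye as the lowest concentration with no bacterial growth, following CLSI microdilution in iron-depleted cation-adjusted Mueller-Hinton broth at pH 7.3. Starting inoculum 2-8×10^5 CFU/mL; incubation 37° C, 16-20 h for Pseudomonas, 20-24 h for Acinetobacter.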

[2] = test system: A. baumannii CDC-0036 OXA-65, and OXA-24; details: Acinetobacter baumannii, read-out: Minimum Inhibitory Concentration, CDC-0036
Procedure, shortened: as §1

[3] = test system: A. baumannii IL123 (ABΔ3-ARAEcPore); details: Acinetobacter baumannii, read-out: Minimum Inhibitory Concentration, IL-2123
Procedure, shortened: as §1

[4] = test system: A. baumannii CDC-0033 producing NDM-1, and OXA-94; details: Acinetobacter baumannii, read-out: Minimum Inhibitory Concentration, CDC-0033
Procedure, shortened: as §1

A. baumannii ATCC 17978 = details: Acinetobacter baumannii, ATCC17978, read-out: Minimum Inhibitory Concentration, ATCC 17978
Procedure, shortened: as §1

[5] = test system: P. aeruginosa (ΔmexAB-oprM); details: Pseudomonas aeruginosa, read-out: Minimum Inhibitory Concentration, P. aeruginosa ΔmexAB-OprM
Procedure, shortened: as §1

[6] = test system: P. aeruginosa CDC-0054 producing VIM-4, OXA-50, and PAO; details: Pseudomonas aeruginosa, read-out: Minimum Inhibitory Concentration, P. aeruginosa CDC-0054
Procedure, shortened: as §1

P. aeruginosa ATCC 27853 = details: Pseudomonas aeruginosa, ATCC27853, read-out: Minimum Inhibitory Concentration, P. aeruginosa ATCC 27853
Procedure, shortened: as §1

[7] = test system: P. aeruginosa CDC-0095 producing OXA-50, and PAO; details: Pseudomonas aeruginosa, read-out: Minimum Inhibitory Concentration, P. aeruginosa CDC-0095
Procedure, shortened: as §1

A. baumannii ATCC 19606 = details: Acinetobacter baumannii, ATCC19606, read-out: Minimum Inhibitory Concentration, ATCC 19606
Procedure, shortened: as §1

[8] = test system: A. baumannii CDC-0083 producing NDM-1, PER-7, OXA-23, and OXA-69; details: Acinetobacter baumannii, read-out: Minimum Inhibitory Concentration, CDC-0083
Procedure, shortened: as §1

P. aeruginosa ATCC 35151 = details: Pseudomonas aeruginosa, ATCC35151; iron-depleted MHB (IDM); hyper-permeable strain; read-out: Minimum Inhibitory Concentration, P. aeruginosa ATCC 35151
Procedure, shortened: as §1

[9] = test system: A. baumannii CDC-0045 producing TEM-1D, OXA-23, and OXA-69; details: Acinetobacter baumannii, read-out: Minimum Inhibitory Concentration, CDC-0045

SMILES | MIC (P. aeruginosa CDC-0110) [µg/mL] | MIC [1] [µg/mL] | MIC [2] [µg/mL] | MIC [3] [µg/mL] | MIC [4] [µg/mL] | MIC (A. baumannii ATCC 17978) [µg/mL] | MIC [5] [µg/mL] | MIC [6] [µg/mL] | MIC (P. aeruginosa ATCC 27853) [µg/mL] | MIC [7] [µg/mL] | MIC (A. baumannii ATCC 19606) [µg/mL] | MIC [8] [µg/mL] | MIC (P. aeruginosa ATCC 35151) [µg/mL] | MIC [9] [µg/mL]
O=C(NC(C(=O)N[C@H]1Cc2ccc(F)c(C(=O)O)c2OB1O)c1ncc(O)cc1F)c1c(F)cc(O)c(O)c1Cl (stereo partly drawn) [Example 10, (3R)-3-(2-(2-chloro-6-fluoro-3,4-dihydroxybenzamido)-2-(3-fluoro-5-hydroxypyridin-2-yl)acetamido)-7-fluoro-2-hydroxy-3,4-dihydro-2H-benzo[e][1,2]oxaborinine-8-carboxylic acid] | 0.5 to 1 (≈ 0.86 to 1.72 µM) | 0.5 to 1 (≈ 0.86 to 1.72 µM) | 32 to 64 (≈ 55 to 110 µM) | 32 to 64 (≈ 55 to 110 µM) | 32 to 64 (≈ 55 to 110 µM) | 32 to 64 (≈ 55 to 110 µM) | 0.5 to 1 (≈ 0.86 to 1.72 µM) | 2 to 4 (≈ 3.44 to 6.88 µM) | 0.5 to 1 (≈ 0.86 to 1.72 µM) | 2 to 4 (≈ 3.44 to 6.88 µM) | 32 to 64 (≈ 55 to 110 µM) | 32 to 64 (≈ 55 to 110 µM) | 0.25 (≈ 0.43 µM) | 32 to 64 (≈ 55 to 110 µM)
NCCN1CCN(C(=O)N[C@@H](C(=O)N[C@H]2Cc3ccc(F)c(C(=O)O)c3OB2O)c2c(F)cc(O)c(O)c2F)C(=O)C1=O (single isomer, unassigned) [Example 40] | 2 to 4 (≈ 3.28 to 6.57 µM) | 8 to 16 (≈ 13.1 to 26.3 µM) | 2 to 4 (≈ 3.28 to 6.57 µM) | 8 to 16 (≈ 13.1 to 26.3 µM) | 2 to 4 (≈ 3.28 to 6.57 µM) | 0.25 (≈ 0.41 µM) | 0.25 (≈ 0.41 µM) | 8 to 16 (≈ 13.1 to 26.3 µM) | 2 to 4 (≈ 3.28 to 6.57 µM) | 2 to 4 (≈ 3.28 to 6.57 µM) | 0.5 to 1 (≈ 0.821 to 1.64 µM) | 0.5 to 1 (≈ 0.821 to 1.64 µM) | 0.25 (≈ 0.41 µM) | 2 to 4 (≈ 3.28 to 6.57 µM)
O=C(O)c1c(F)ccc2c1OB(O)[C@@H](NC(=O)[C@H](NC(=O)N1CCNC1=O)c1c(F)cc(O)c(O)c1Cl)C2 (single isomer, unassigned) [Example 34] | 0.5 to 1 (≈ 0.901 to 1.8 µM) | 0.5 to 1 (≈ 0.901 to 1.8 µM) | 0.5 to 1 (≈ 0.901 to 1.8 µM) | 2 to 4 (≈ 3.61 to 7.21 µM) | 0.5 to 1 (≈ 0.901 to 1.8 µM) | 0.25 (≈ 0.451 µM) | 0.25 (≈ 0.451 µM) | 0.5 to 1 (≈ 0.901 to 1.8 µM) | 0.5 to 1 (≈ 0.901 to 1.8 µM) | 32 to 64 (≈ 57.7 to 115 µM) | 0.25 (≈ 0.451 µM) | 0.5 to 1 (≈ 0.901 to 1.8 µM) | 0.25 (≈ 0.451 µM) | 0.25 (≈ 0.451 µM)
